System: citrus canker microbe (Xanthomonas axonopodis pv citri)
Assay: Nursery experiment: compositions sprayed on fruit bearing citrus trees inoculated with citrus canker microbe
Type: in vivo
Method: In a nursery experiment, three antimicrobial compositions and a control composition were tested for activity against citrus canker microbe. The compositions were sprayed on fruit bearing citrus trees that had been inoculated with citrus canker microbe (Xanthomonas axonopodis pv citri). In these experiments composition A was the metal antimicrobial agent and poly(hexamethyl biguanide) composition and composition B was this composition plus copper ion.
The composition of metal antimicrobial agent and poly(hexamethyl biguanide) as used in compositions A and B included: water ([…]), poly(hexamethyl biguanide) (0.6 wt-%), and silver iodide (0.02 wt-%) Triton X-100 (2 wt-%), Tectronic 1107 (1.2 wt-%), 1-methyl-2-pyrrolidinone (0.3 wt-%), and ethanol (2.8 wt-%).
The antimicrobial composition was applied periodically and the plants were challenged with citrus canker microbe.

Copper was tested, and the “% OF HEALTHY LEAVES” value (Date 1) was 82%, the “% OF LEAVES WITH CANKER” value (Date 1) was 22.2% and the “% OF HEALTHY LEAVES” value (Date 2) was 80.7%. The “% OF LEAVES WITH CANKER” value (Date 2) was 18%, the “% OF HEALTHY LEAVES” value (Date 4) was 84.7% and the “% OF LEAVES WITH CANKER” value (Date 4) was 17.59%.

From patent publication US20060147549A1, “Methods and compositions for reducing population of plant pathogen” (priority 2004, published 2006)
